Patent US11078222B2, “Hydroxybenzoic acid derivatives, methods and uses thereof” (UNiVERSIDADE DO PORTO, priority 2016, dated 2021)
pIC50: −log10 of the molar value.

Columns and labels:
[1] = DPPH radical scavenging activity (total antioxidant capacity); format: biochemical; conditions: ethanol, 515 nm, 45 min
[2] = test system: rat liver mitochondria (RLM); assay: Mitochondrial respiration of isolated RLM (Clark-type oxygen electrode): RCR, ADP/O; format: biochemical; conditions: RLM
Procedure: In an embodiment, and as an example, the toxicity effects of some AntiOxBENs and MitoQ on the mitochondrial bioenergetics, namely on RLM Δψ and respiration parameters, were measured. The Δψ represents the main component of the electrochemical gradient generated by mitochondrial respiration and accounts for more than 90% of the total available energy. For mitochondrial respiration assays, glutamate/malate (for complex I) and succinate (for complex II) were used as substrates. In addition, the mitochondrial oxidative phosphorylation coupling index, known as respiratory control ratio (RCR, state 3/state 4 respiration) and ADP/O index (the coupling between ATP synthesis and oxygen consumption) were also calculated. AntiOxBENs and MitoQ were tested at antioxidant-relevant concentrations, with 10 μM being the highest concentration.
In an embodiment, the evaluation of AntiOxBENs effect on mitochondrial respiration was performed as follows: the respiration of isolated RLM was evaluated polarographically with a Clark-type oxygen electrode, connected to a suitable recorder in a 1 mL thermostated water-jacketed chamber with magnetic stirring, at 37° C. […] Increasing concentrations of AntiOxBENs (2.5-10 μM) were added to the reaction medium containing respiratory substrates glutamate/malate (10 mM and 5 mM respectively) or succinate (5 mM) and RLM (1 mg) and allowed to incubate for a 5 min period prior to the assay. State 2 was considered as the respiration during the 5 min incubation time with AntiOxBENs. […] State 4 was determined after ADP phosphorylation finished. Subsequent addition of oligomycin (2 μg/ml) inhibited ATPsynthase and originated the oligomycin-inhibition respiration state. Finally, 1 μM FCCP was added to induce uncoupled respiration. […] Data are means are means±SEM of seven independent experiments.

[3] = GO radical scavenging activity; format: biochemical; conditions: ethanol, 428 nm, 30 min
[4] = ABTS radical cation scavenging activity; format: biochemical; conditions: ethanol, 15 min
[5] = Redox potential by differential pulse and cyclic voltammetry, glassy carbon electrode; format: physicochemical; conditions: physiological pH 7.4
Procedure: In an embodiment, the oxidative behaviour of the parent antioxidants (protocatechuic and gallic acids) and AntiOxBENs was evaluated at physiological pH 7.4, by differential pulse and cyclic voltammetry, using a glassy carbon working electrode. […] For pyrogallol derivatives (gallic acid, AntiOxBEN2, AntiOxBEN3), a significant decrease in redox potentials was observed (Ep=0.163-0.168 V) (Table 1).
In an embodiment, the electrochemical analytical data was obtained using a computer controlled potentiostat Autolab PGSTAT302N (Metrohm Autolab, Utrecht, Netherlands). Generally, cyclic voltammetry (CV) data was acquired at a scan rate of 50 mVs^−1. Differential pulse voltammetry (DPV) results were acquired at a step potential of 4 mV, pulse amplitude of 50 mV and scan rate of 8 mVs^−1. The electrochemical signals were monitored by the General Purpose Electrochemical System (GPES) version 4.9, software package. All electrochemical experiments were performed at room temperature in an electrochemical cell that was placed in a Faraday cage in order to minimize the contribution of background noise to the analytical signal.
In an embodiment, the process of evaluation of AntiOxBENs redox properties was conducted as follows: stock solutions of each compound (10 mM) were prepared by dissolving the appropriate amount in ethanol. The voltammetric working solutions were prepared in the electrochemical cell, at a final concentration of 0.1 mM. The […] supporting electrolyte was prepared by diluting 6.2 mL of 0.2 M dipotassium hydrogen phosphate and 43.8 mL of 0.2 M potassium dihydrogen phosphate to 100 mL. Voltammetric data was acquired in a three-electrode system consisting of a glassy carbon electrode (GCE, d=2 mm) as working electrode, a counter electrode of platinum wire and a saturated Ag/AgCl reference electrode. In an embodiment, the evaluation of AntiOxBENs lipophilic properties was performed as follows: the electrochemical cell was a four-electrode system with arrays of micro liquid-liquid interfaces (μITIES) containing two Ag/AgCl reference electrodes and two counter electrodes of Pt, one in each phase. The microporous membrane was sealed with a fluorosilicone sealant (Dow Corning 730) onto a glass cylinder which was filled with 4.0 mL of the aqueous phase, where the aliquots of AntiOxBENs solutions were added. The membrane was then immersed into the organic phase contained in the cell. The organic phase reference solution (a 2 mM BTPPACI+2 mM NaCl aqueous solution) was mechanically stabilized The aqueous supporting electrolyte solution was a Tris-HCl buffer 10 mM pH 7.0.

[6] = test system: rat liver mitochondria (RLM) membranes; assay: RLM lipid peroxidation, TBARS assay (FeSO4/H2O2/ascorbate); conditions: 5 μM, FeSO4/H2O2/ascorbate

Ep (redox potential) ([5]; listed as MitoBEN3) [V]	SMILES	pIC50 [1]	ADP/O ([2]; Glutamate/Malate, 2.5 μM)	RCR ([2]; Glutamate/Malate, 2.5 μM)	ADP/O ([2]; Glutamate/Malate, 5 μM)	RCR ([2]; Glutamate/Malate, 5 μM)	ADP/O ([2]; Glutamate/Malate, 10 μM)	RCR ([2]; Glutamate/Malate, 10 μM)	ADP/O ([2]; Succinate, 2.5 μM)	RCR ([2]; Succinate, 2.5 μM)	ADP/O ([2]; Succinate, 5 μM)	RCR ([2]; Succinate, 5 μM)	ADP/O ([2]; Succinate, 10 μM)	RCR ([2]; Succinate, 10 μM)	pIC50 [3]	pIC50 [4]	Ep (redox potential) [5] [V]	prevention of TBARS formation / mitochondria lipid peroxidation [6]	Ep (redox potential) ([5]; listed as MitoBEN2) [V]
–	O=C(NCCCCCC[P+](c1ccccc1)(c1ccccc1)c1ccccc1)c1ccc(O)c(O)c1.[Br-] [AntiOxBEN1, 6-(3,4-dihydroxybenzamido)hexyltriphenylphosphonium bromide]	4.56	2.5 ± 0.2	4.9 ± 0.6	2.8 ± 0.4	4.4 ± 0.6	2.1 ± 0.1	2.6 ± 0.1	1.7 ± 0.03	4.7 ± 0.3	1.6 ± 0.1	3.0 ± 0.3	1.5 ± 0.1	2.8 ± 0.3	5.37	4.52	0.224	not effective	–
–	O=C(NCCCCCC[P+](c1ccccc1)(c1ccccc1)c1ccccc1)c1cc(O)c(O)c(O)c1.[Br-] [AntiOxBEN2, 6-(3,4,5-trihydroxybenzamido)hexyltriphenylphosphonium bromide]	4.74	2.3 ± 0.3	4.3 ± 0.6	2.3 ± 0.2	3.9 ± 0.5	2.1 ± 0.2	2.9 ± 0.3	1.7 ± 0.1	5.2 ± 0.9	1.7 ± 0.1	3.8 ± 0.4	1.6 ± 0.04	3.5 ± 0.3	5.52	4.99	–	most effective	0.168
0.164	O=C(CCCCC[P+](c1ccccc1)(c1ccccc1)c1ccccc1)NCCCCCCNC(=O)c1cc(O)c(O)c(O)c1.[Br-] [AntiOxBEN3, [5-(6-(3,4,5-trihydroxybenzamido)hexylamino)carbonylpentyl]triphenylphosphonium bromide]	4.73	2.3 ± 0.2	3.9 ± 0.5	2.3 ± 0.1	3.9 ± 0.6	2.0 ± 0.2	3.07 ± 0.6	1.6 ± 0.1	4.1 ± 0.5	1.6 ± 0.1	4.3 ± 0.7	1.7 ± 0.1	3.9 ± 0.4	5.47	5.02	–	most effective	–
